# Laboratory results: patent publication US9532994B2, “Agents and methods for enhancing bone formation by oxysterols in combination with bone morphogenic proteins” (THE REGENTS OF THE UNIVERSITY OF CALIFORNIA, priority 2003, dated 2017)
# Legend:
# [1] = test system: M2-10B4 mouse marrow stromal cell line; assay: Matrix mineralization in M2 cells (von Kossa staining, 45Ca incorporation assay); type: cell-based; details: 0.5-10 μM, as many as 14 days, data not shown
# Experimental: Cells: M2-10B4 mouse marrow stromal cell line obtained from American Type Culture Collection (ATCC, Rockville, Md., U.S.A.) was derived from bone marrow stromal cells of a (C57BL/6J×C3H/HeJ) F1 mouse, and support human and murine myelopoiesis in long-term cultures (as per ATCC) and have the ability to differentiate into osteoblastic and adipocytic cells. Unless specified, these cells were cultured in RPMI 1640 containing 10% heat-inactivated FBS, and supplemented with 1 mM sodium pyruvate, 100 U/ml penicillin, and 100 […] (all from Irvine Scientific).
# Von Kossa and oil red O staining—Matrix mineralization in cell monolayers was detected by silver nitrate staining as previously described. Oil red O staining for detection of adipocytes was performed as previously described.
# ^45Ca incorporation assay—Matrix mineralization in cell monolayers was quantified using the ^45Ca incorporation assay as previously described.
# M2 cells at confluence were treated in osteogenic medium with control vehicle or 5 μM oxysterols, alone or in combination as indicated. After 14 days, mineralization was identified by a von Kossa staining, which appears black. FIG. 3C is a depiction of von Kossa staining of M2 cells exposed to various conditions.
# M2 cells were treated with control vehicle (C) or a combination of 22R and 20S oxysterols at increasing concentrations. After 14 days, matrix mineralization in cultures was quantified using a ^45Ca incorporation assay. […] FIG. 3D is a bar graph depicting the effect of a combination of oxysterols at various doses on calcium incorporation in M2 cells.
# Next, a combination of 22R and 20S oxysterols (RS, 2.5 μM each) were added in the presence or absence of SC as indicated. After 3 days, ALP activity was measured as described earlier. […] (B) M2 cells were treated as described in (A) and after 10 days matrix mineralization in cultures was quantified by a ^45Ca incorporation assay as described earlier. Results from a representative of three experiments are shown, reported as the mean±SD of quadruplicate determinations, normalized to protein concentration. (C) M2 cells were pretreated with 20 μM SC for 4 hours, followed by the addition of RS in the presence or absence of SC as described above. After 8 days, total RNA was isolated and analyzed for osteocalcin (Osc) and 18S rRNA expression by Northern blotting as previously described. Data from densitometric analysis of the Northern blot is shown in (D) as the average of duplicate samples, normalized to 18S rRNA. (E) M2 cells at confluence were pretreated for 2 hours with control vehicle (C), or PLA2 inhibitors ACA (25 μM) and MCOCF3 (MC, 20 μM), in osteogenic medium. Next, a combination of 22R and 20S oxysterols (RS, 2.5 μM) was added in the presence or absence of the inhibitors as indicated. After 3 days, ALP activity was measured as previously described. Data from a representative of three experiments are shown, reported as the mean±SD of quadruplicate determinations, normalized to protein concentration (p<0.01 for RS vs. RS+ACA and RS+MC). (F) M2 cells were treated as described in (E). After 10 days, matrix mineralization in cultures was quantified using a ^45Ca incorporation assay as previously described. Results from a representative of three experiments are shown, reported as the mean of quadruplicate determinations±SD, normalized to protein concentration (p<0.01 for RS vs. RS+ACA and RS+MC).
# (A) M2 cells at confluence were pretreated for four hours with RPMI containing 1% FBS, followed by treatment with control vehicle or 5 μM 20S oxysterol for 1, 4, or 8 hours. Next total cell extracts were prepared and analyzed for levels of native or phosphorylated ERK (pERK) using specific antibodies as previously described.
# lipoprotein lipase (LPL) = assay: Northern blotting for lipoprotein lipase in M2 cells; type: cell-based, mouse; details: 10 μM Tro with 10 μM 20S, 10 days (FIGS. 7C and D)
# Experimental: RNA isolation and Northern blot analysis - Following treatment of cells under appropriate experimental conditions, total RNA was isolated using the RNA isolation kit from Stratagene (La Jolla, Calif., U.S.A.). Total RNA ([…]) was run on a 1% agarose/formaldehyde gel and transferred to Duralon-UV membranes (Strategene, CA, U.S.A.) and cross-linked with UV light. The membranes were hybridized overnight at 60° C. with ^32P-labeled mouse osteocalcin cDNA probe, mouse lipoprotein lipase (LPL), mouse adipocyte protein 2 (aP2) PCR-generated probes, human 28S or 18S rRNA probes obtained from Geneka Biotechnology (Montreal, Quebec, Canada) and Maxim Biotech (San Francisco, CA, U.S.A.), respectively. […] The extent of gene induction was determined by densitometry.
# Test 2: (A) M2 cells at confluence were treated in RPMI containing 10% FBS with control vehicle or 10 μM troglitazone (Tro) in the absence or presence of 10 μM 20S or 22S oxysterols. After 10 days, adipocytes were visualized by oil Red O staining and quantified by light microscopy, shown in (B). […] After 10 days, total RNA was isolated and analyzed for lipoprotein lipase (LPL), adipocyte P2 gene (aP2) or 18S rRNA expression by Northern blotting as described (Ref). […]
smiles,measurement,setting,value
"CC(C)CCC[C@](C)(O)[C@H]1CC[C@H]2[C@@H]3CC=C4C[C@@H](O)CC[C@]4(C)[C@H]3CC[C@@]21C [20S, 20(S)-hydroxycholesterol]","induction of mineralization, individual oxysterols",[1],unable to induce
same,expression of lipoprotein lipase (LPL),lipoprotein lipase (LPL),inhibition of the expression
"CC(C)CC[C@@H](O)[C@@H](C)[C@H]1CC[C@H]2[C@@H]3CC=C4C[C@@H](O)CC[C@]4(C)[C@H]3CC[C@]12C [22R, 22(R)-hydroxycholesterol]","induction of mineralization, individual oxysterols",[1],unable to induce
"CC(C)CC[C@H](O)[C@@H](C)[C@H]1CC[C@H]2[C@@H]3CC=C4C[C@@H](O)CC[C@]4(C)[C@H]3CC[C@]12C [22S, 22(S)-hydroxycholesterol]","induction of mineralization, individual oxysterols",[1],unable to induce
